Laboratory results: patent publication US20260297679A1, “ASSAYS FOR MONITORING INHIBITION OF RNA HELICASE DHX9” (ACCENT THERAPEUTICS, INC., priority 2023, published 2026)

Test system: LS411N tumors
Experiment: Intra-tumoral human circBRIP1 analysis, LS411N xenograft
Type: in vivo, human xenograft in female BALB/c nude mice
Settings: 30, 100, 200 and 300 mg/kg BID oral, 21 days, 12 hours post last dose; FIG. 4A
Experimental: This study was conducted to evaluate pharmacodynamics (PD) and pharmacokinetics (PK) of intra-tumoral circular BRIP1 with efficacy of a DHX9 inhibitor (Compound 1, as shown in Table 1).
In vivo Efficacy Study: Experiments were performed in female BALB/c nude mice (GenPharmatech Co.). Animals were allowed to acclimate for 7 days before the study. The general health of the animals were evaluated by a veterinarian, and complete health checks were performed prior to the study. […] Animals were housed in polycarbonate cage which is the size of 300×180×150 mm^3 and in an environmentally monitored, well-ventilated room maintained at a temperature of (23±3° C.) and a relative humidity of 40% 70%. […]
The LS411N (ATCC; CRL-2159) tumor cell lines were maintained in vitro as monolayer in RPMI 1640 medium supplemented with 10% heat inactivated FBS, at 37° C. in an atmosphere of 5% CO2 in air. The tumor cells were sub-cultured, not exceeding 4-5 passages, and cells growing in an exponential growth phase were harvested and counted for tumor inoculation. […]
Data analysis was performed by using the QuantStudio Thermocycler software to determine threshold Ct values. ΔCt for circBRIP1 or linBRIP1 is calculated by normalizing the target gene Ct to the GAPDH housekeeping gene Ct for each sample. The inhibition activity is calculated by the following formula, whereas: […]

Cc1cccnc1-c1csc(C(=O)Nc2cc(Cl)cc(NS(C)(=O)=O)c2)c1 [Compound 1, N-(3-chloro-5-methanesulfonamidophenyl)-4-(3-methylpyridin-2-yl)thiophene-2-carboxamide]
intra-tumoral circBRIP1 induction: Dose-dependent intra-tumoral circBRIP1 induction was observed
